For the experiment, the target named is T1, TAAR3 (Mus musculus, UniProt Q5QD16).
T1 construct: transiently expressed with Galpha-olf in HEK293 cells
T1 sequence (Q5QD16 1-343): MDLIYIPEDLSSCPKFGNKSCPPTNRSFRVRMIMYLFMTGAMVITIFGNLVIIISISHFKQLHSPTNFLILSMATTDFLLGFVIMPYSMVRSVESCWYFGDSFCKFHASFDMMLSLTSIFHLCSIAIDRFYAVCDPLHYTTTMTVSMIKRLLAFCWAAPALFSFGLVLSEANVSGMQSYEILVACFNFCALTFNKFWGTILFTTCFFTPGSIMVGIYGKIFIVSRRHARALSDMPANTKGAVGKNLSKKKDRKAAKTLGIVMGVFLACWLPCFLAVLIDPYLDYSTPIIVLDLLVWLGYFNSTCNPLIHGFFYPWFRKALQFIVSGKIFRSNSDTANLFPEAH
Briefly: cAMP accumulation, HEK293 cells, luminescence. Type of experiment: cell-based. (In general: Cyclic AMP is a second messenger, typically raised through Gs and lowered through Gi signalling.)

This note sets out measurements from publication PMC6104183, “How Female Mice Attract Males: A Urinary Volatile Amine Activates a Trace Amine-Associated Receptor That Induces Male Sexual Interest” (Frontiers in Pharmacology, 2018).

Take `CC(C)CN` [isobutylamine]: the EC50 (usually the concentration needed to bring the measured effect to its halfway point) came to 32 nM.
